For one assay, the system named is ENR+CD organoids. The assay can be described thus: Primary screen: ATP (CellTiter-Glo 3D, CTG) cell number/viability, 2.5-D 384-well ENR+CD organoids.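 Also: compounds given at plating and again on day 3 over a 6-day differentiation from ENR+CV stem-cell-enriched precursors, ATP measured on day 6, plate median as control.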 The note with it: primary screen.
The test system of assay [1] is ENR+CD organoids (ISC to Paneth cell differentiation). The assay can be described thus: Primary screen: basal (non-stimulated) lysozyme secretion LYZ.NS, 2.5-D 384-well ENR+CD organoid differentiation. It counts as cell-based, mouse. Conditions: primary screen; for Z.LYZ.NS: standard z score. From the text:
(§1) High-throughput screening.

The test system is the same in assay [2]. Nature of the assay: Primary screen: CCh-stimulated lysozyme secretion LYZ.S, 2.5-D 384-well ENR+CD organoid differentiation. The class given is cell-based, mouse. Conditions: primary screen.
From the text: as §1

Setting [3] is: dose 0.08 uM, FC vs plate median.
Setting [4] is: dose 0.40 uM, FC vs plate median.
The mark [5] stands for this setting: dose 2.00 uM, FC vs plate median.
Setting [6] is: dose 10.00 uM, FC vs plate median.
[7] abbreviates: dose 0.08 uM, FC relative to plate median.
The mark [8] stands for this setting: dose 0.40 uM, FC relative to plate median.
The mark [9] stands for this setting: dose 2.00 uM, FC relative to plate median.
[10] abbreviates: dose 10.00 uM, FC relative to plate median.

`Oc1cc(O)cc(/C=C/c2ccc(O)c(O)c2)c1` [Piceatannol]: the Dose.FC.CTG is given as 0.232 log2 fold change in the assay on ENR+CD organoids (setting [3]), −0.090 log2 fold change in the assay with ENR+CD organoids (setting [4]), 0.074 log2 fold change with ENR+CD organoids (setting [5]) and −0.071 log2 fold change in the assay on ENR+CD organoids (setting [6]). Besides, the Z.LYZ.NS in assay [1] (dose 0.08 uM) is given as 0.698; in assay [1] (dose 0.40 uM), 0.375; in assay [1] (dose 2.00 uM), 0.221; in assay [1] (dose 10.00 uM), −0.184. The Dose.FC.LYZ.NS is 0.080 log2 fold change in assay [1] (setting [3]), 0.043 log2 fold change in assay [1] (setting [4]), 0.025 log2 fold change in assay [1] (setting [5]) and −0.021 log2 fold change in assay [1] (setting [6]). Also, the Dose.FC.LYZ.S in assay [2] (setting [3]) is given as 0.094 log2 fold change; in assay [2] (setting [4]), 0.045 log2 fold change; in assay [2] (setting [5]) it was 0.016 log2 fold change; in assay [2] (setting [6]), −0.104 log2 fold change.
As for `CC(C)C[C@H](NC(=O)CNC(=O)c1cc(Cl)ccc1Cl)B(O)O` [MLN2238], the Dose.FC.CTG in the assay with ENR+CD organoids (setting [3]) is on record as −1.655 log2 fold change; in the assay on ENR+CD organoids (setting [4]), −1.104 log2 fold change; in the assay with ENR+CD organoids (setting [5]), −1.233 log2 fold change; in the assay on ENR+CD organoids (setting [6]) it was −1.761 log2 fold change. The Z.LYZ.NS in assay [1] (dose 0.08 uM) is −2.358; in assay [1] (dose 0.40 uM) it was −2.477; in assay [1] (dose 2.00 uM), −2.166; in assay [1] (dose 10.00 uM), −2.597. For the same molecule, the Dose.FC.LYZ.NS in assay [1] (setting [3]) was −0.271 log2 fold change; in assay [1] (setting [4]), −0.284 log2 fold change; in assay [1] (setting [5]), −0.249 log2 fold change; in assay [1] (setting [6]) it was −0.298 log2 fold change. The Dose.FC.LYZ.S in assay [2] (setting [3]) is given as −0.383 log2 fold change; in assay [2] (setting [4]) it was −0.358 log2 fold change; in assay [2] (setting [5]), −0.353 log2 fold change; in assay [2] (setting [6]), −0.370 log2 fold change.
As for `CN(C)C(=O)c1ccc(S(=O)(=O)c2ccc(NC(=O)[C@@](C)(O)C(F)(F)F)c(Cl)c2)cc1` [AZD7545], the Dose.FC.CTG with ENR+CD organoids (dose 0.08 uM) is −0.334 log2 fold change; in the assay with ENR+CD organoids (dose 0.40 uM), −0.158 log2 fold change; in the assay with ENR+CD organoids (dose 2.00 uM), −0.255 log2 fold change; in the assay with ENR+CD organoids (dose 10.00 uM), −0.350 log2 fold change. Also, the “Z.CTG (standard z score)” value is reported as −0.798 in the assay on ENR+CD organoids (dose 0.08 uM), −0.378 in the assay with ENR+CD organoids (dose 0.40 uM), −0.608 with ENR+CD organoids (dose 2.00 uM) and −0.836 with ENR+CD organoids (dose 10.00 uM). Also, the Dose.FC.LYZ.NS is given as 0.087 log2 fold change in assay [1] (dose 0.08 uM), −0.028 log2 fold change in assay [1] (dose 0.40 uM), −0.018 log2 fold change in assay [1] (dose 2.00 uM) and −0.051 log2 fold change in assay [1] (dose 10.00 uM). Further, the “Z.LYZ.NS (standard z score)” value in assay [1] (dose 0.08 uM) was 0.758; in assay [1] (dose 0.40 uM), −0.245; in assay [1] (dose 2.00 uM), −0.155; in assay [1] (dose 10.00 uM) it was −0.441. The Dose.FC.LYZ.S in assay [2] (dose 0.08 uM) was 0.111 log2 fold change; in assay [2] (dose 0.40 uM) it was −0.017 log2 fold change; in assay [2] (dose 2.00 uM), −0.148 log2 fold change; in assay [2] (dose 10.00 uM), −0.104 log2 fold change.
Take `Fc1cc(F)c2c(c1)[C@H]1C=CC[C@H]1C(c1cccnc1)N2` (mixture of isomers) [Golgicide A]: the “Dose.FC.CTG (log2 fold change)” value is reported as 0.167 in the assay with ENR+CD organoids (dose 0.08 uM), 0.227 with ENR+CD organoids (dose 0.40 uM), 0.339 in the assay with ENR+CD organoids (dose 2.00 uM) and −0.220 in the assay with ENR+CD organoids (dose 10.00 uM). Moreover, the “Z.CTG (standard z score)” value in the assay with ENR+CD organoids (dose 0.08 uM) was 0.398; in the assay with ENR+CD organoids (dose 0.40 uM), 0.541; with ENR+CD organoids (dose 2.00 uM), 0.810; in the assay with ENR+CD organoids (dose 10.00 uM), −0.526. The “Dose.FC.LYZ.NS (log2 fold change)” value in assay [1] (dose 0.08 uM) is 0.267; in assay [1] (dose 0.40 uM) it was 0.066; in assay [1] (dose 2.00 uM), 0.171; in assay [1] (dose 10.00 uM), −0.161. The “Z.LYZ.NS (standard z score)” value is on record as 2.325 in assay [1] (dose 0.08 uM), 0.576 in assay [1] (dose 0.40 uM), 1.492 in assay [1] (dose 2.00 uM) and −1.402 in assay [1] (dose 10.00 uM). The “Dose.FC.LYZ.S (log2 fold change)” value in assay [2] (dose 0.08 uM) is recorded as 0.146; in assay [2] (dose 0.40 uM) it was 0.202; in assay [2] (dose 2.00 uM), 0.076; in assay [2] (dose 10.00 uM) it was −0.256.
For the molecule `CN1CCCCC1Cn1cc(C(=O)c2cc([N+](=O)[O-])ccc2I)c2ccccc21` (stereo not shown) [AM1241], the Dose.FC.CTG is recorded as 0.159 log2 fold change in the assay with ENR+CD organoids (dose 0.08 uM), −0.054 log2 fold change in the assay with ENR+CD organoids (dose 0.40 uM), −0.062 log2 fold change in the assay on ENR+CD organoids (dose 2.00 uM) and −0.001 log2 fold change in the assay with ENR+CD organoids (dose 10.00 uM). The “Z.CTG (standard z score)” value is on record as 0.379 in the assay with ENR+CD organoids (dose 0.08 uM), −0.129 with ENR+CD organoids (dose 0.40 uM), −0.147 in the assay with ENR+CD organoids (dose 2.00 uM) and −0.002 in the assay with ENR+CD organoids (dose 10.00 uM). Moreover, the Dose.FC.LYZ.NS is on record as 0.052 log2 fold change in assay [1] (dose 0.08 uM), 0.004 log2 fold change in assay [1] (dose 0.40 uM), −0.014 log2 fold change in assay [1] (dose 2.00 uM) and −0.003 log2 fold change in assay [1] (dose 10.00 uM). For the same molecule, the “Z.LYZ.NS (standard z score)” value in assay [1] (dose 0.08 uM) is recorded as 0.454; in assay [1] (dose 0.40 uM), 0.035; in assay [1] (dose 2.00 uM), −0.123; in assay [1] (dose 10.00 uM) it was −0.028. The Dose.FC.LYZ.S is 0.046 log2 fold change in assay [2] (dose 0.08 uM), 0.088 log2 fold change in assay [2] (dose 0.40 uM), −0.017 log2 fold change in assay [2] (dose 2.00 uM) and −0.080 log2 fold change in assay [2] (dose 10.00 uM).
On to `COc1cc2c(cc1OC)[C@@H]1Cc3ccc(OC)c(OC)c3CN1CC2` [Rotundine], for which the Dose.FC.CTG with ENR+CD organoids (setting [7]) is reported as 0.359 log2 fold change; with ENR+CD organoids (setting [8]) it was 0.343 log2 fold change; with ENR+CD organoids (setting [9]), 0.190 log2 fold change; in the assay with ENR+CD organoids (setting [10]) it was 0.227 log2 fold change. The Dose.FC.LYZ.NS is given as 0.124 log2 fold change in assay [1] (setting [7]), 0.032 log2 fold change in assay [1] (setting [8]), 0.072 log2 fold change in assay [1] (setting [9]) and 0.126 log2 fold change in assay [1] (setting [10]). The Z.LYZ.NS came out at 1.082 in assay [1] (dose 0.08 uM), 0.282 in assay [1] (dose 0.40 uM), 0.623 in assay [1] (dose 2.00 uM) and 1.100 in assay [1] (dose 10.00 uM). The Dose.FC.LYZ.S was 0.151 log2 fold change in assay [2] (setting [7]), 0.049 log2 fold change in assay [2] (setting [8]), 0.080 log2 fold change in assay [2] (setting [9]) and 0.095 log2 fold change in assay [2] (setting [10]).
For `CO[C@H]1C[C@@H]2CC[C@@H](C)[C@@](O)(O2)C(=O)C(=O)N2CCCC[C@H]2C(=O)O[C@H]([C@H](C)C[C@@H]2CC[C@@H](OC(=O)C(C)(CO)CO)[C@H](OC)C2)CC(=O)[C@H](C)/C=C(\C)[C@@H](O)[C@@H](OC)C(=O)[C@H](C)C[C@H](C)/C=C/C=C/C=C/1C` [Temsirolimus (CCI-779, NSC 683864)], the Dose.FC.CTG in the assay with ENR+CD organoids (setting [7]) amounted to 0.514 log2 fold change; with ENR+CD organoids (dose 0.40 uM), 0.583 log2 fold change; with ENR+CD organoids (dose 2.00 uM), 0.578 log2 fold change; with ENR+CD organoids (dose 10.00 uM), 0.200 log2 fold change. The Z.CTG in the assay on ENR+CD organoids (dose 0.08 uM, standard z score) is recorded as 1.228. In addition, the “Z.CTG (standard z score)” value in the assay with ENR+CD organoids (dose 0.40 uM) is 1.393; in the assay on ENR+CD organoids (dose 2.00 uM), 1.382; with ENR+CD organoids (dose 10.00 uM), 0.478. Besides, the Dose.FC.LYZ.NS worked out at 0.091 log2 fold change in assay [1] (setting [7]), 0.088 log2 fold change in assay [1] (dose 0.40 uM), 0.172 log2 fold change in assay [1] (dose 2.00 uM) and 0.119 log2 fold change in assay [1] (dose 10.00 uM). The molecule also came in with a Z.LYZ.NS in assay [1] (dose 0.08 uM) of 0.790. Besides, the entries for the “Z.LYZ.NS (standard z score)” value in assay [1] (dose 0.40 uM), in assay [1] (dose 2.00 uM) and in assay [1] (dose 10.00 uM) were 0.763, 1.494 and 1.035, respectively. For the same molecule, the Dose.FC.LYZ.S in assay [2] (setting [7]) is on record as 0.082 log2 fold change; in assay [2] (dose 0.40 uM) it was 0.152 log2 fold change; in assay [2] (dose 2.00 uM), 0.132 log2 fold change; in assay [2] (dose 10.00 uM) it was 0.153 log2 fold change.
On to `CC(C)(C)Cn1c(N)nc2ccc(-c3[nH]c(C(C)(C)C)nc3-c3ccc(F)cc3)nc21` [LY2228820], for which the “Dose.FC.CTG (log2 fold change)” value is −0.299 with ENR+CD organoids (dose 0.08 uM), −0.340 with ENR+CD organoids (dose 0.40 uM), −0.339 with ENR+CD organoids (dose 2.00 uM) and −0.332 in the assay on ENR+CD organoids (dose 10.00 uM). Further, the “Z.CTG (standard z score)” value in the assay with ENR+CD organoids (dose 0.08 uM) is −0.715; in the assay on ENR+CD organoids (dose 0.40 uM) it was −0.812; in the assay on ENR+CD organoids (dose 2.00 uM), −0.810; in the assay with ENR+CD organoids (dose 10.00 uM), −0.793. The “Dose.FC.LYZ.NS (log2 fold change)” value is on record as 0.065 in assay [1] (dose 0.08 uM), −0.100 in assay [1] (dose 0.40 uM), 0.043 in assay [1] (dose 2.00 uM) and −0.126 in assay [1] (dose 10.00 uM). Also, the “Z.LYZ.NS (standard z score)” value is 0.569 in assay [1] (dose 0.08 uM), −0.874 in assay [1] (dose 0.40 uM), 0.377 in assay [1] (dose 2.00 uM) and −1.099 in assay [1] (dose 10.00 uM). For the same molecule, the “Dose.FC.LYZ.S (log2 fold change)” value in assay [2] (dose 0.08 uM) was −0.017; in assay [2] (dose 0.40 uM), −0.054; in assay [2] (dose 2.00 uM), −0.130; in assay [2] (dose 10.00 uM), −0.164.

The values above are taken from patent publication US20220323406A1, “METHODS AND COMPOSITIONS FOR DIFFERENTIATING STEM CELLS” (Massachusetts Institute of Technology, priority 2019, published 2022).
